Experimental data taken from PubChem BioAssay AID2060353 (Molecular Pharmacology Branch, DTP, NCI, 2025).

Tested on: 521955-158-R2-J5-PDC spheroids with stroma, growth inhibition
Assay: Anticancer human tumor 521955-158-R2-J5-PDC patient-derived pancreatic carcinoma cell line growth inhibition [TAK]
Details: for IC50: curve of first compound; for viability, T/C: stronger effect = lower value
From the text: Combinatorial screen of targeted agents with TAK-243 and ipatasertib in multi-cell type tumor spheroids
A high-throughput screen of multi-cell type tumor spheroids was designed to identify active combinations of targeted small molecules and TAK-243 or ipatasertib. Complex spheroids include a stromal component modeled by human endothelial cells (HUVEC) and fibroblasts modeled by human mesenchymal stem cells (MSCs). The concentration ranges selected for each drug and investigational agent were based upon clinically achievable concentrations if the clinical Cmax of the agent was known.
Compounds. The drugs and investigational agents: TAK-243 (785004), ipatasertib (767898), everolimus (733504), selumetinib (741078), bortezomib (756655), trametinib (758246), ixazomib (758254), vemurafenib (761431), dabrafenib (764134), sapanisertib (764658), alpelisib (765974), and copanlisib (816437), were obtained from the National Cancer Institute (NCI) Developmental Therapeutics Program Chemical Repository. The FDA-approved anticancer drug set is available from the NCI Developmental Therapeutics Program. […] The stock solutions were prepared in dimethyl sulfoxide (DMSO, Sigma-Aldrich, St. Louis, MO, cat. D2650) at 800-fold the tested concentration and stored at -70 degrees C prior to their use. All drugs and investigational agents were tested over a range starting from a high concentration at or near the clinical Cmax and decreasing in half-log increments. If the clinical Cmax for an agent had not been determined, the highest concentration tested was 10 microM.
NCI60 Cell Culture. NCI60 cell lines were obtained from the NCI Developmental Therapeutics Program Tumor Repository. For each lot of cells, the Repository performed Applied Biosystems AmpFLSTR Identifiler testing with PCR amplification to confirm consistency with the published Identifier STR profile for each cell line. Cells were kept in continuous culture for no more than 20 passages. The optimal seeding densities for each of the cell lines at each time point assessed were determined prior to performing the concentration response studies. Briefly, the NCI60 human tumor lines were grown as monolayers in RPMI 1640 medium supplemented with 10% FBS and 2 mmol/L L-glutamine.
An additional 2 lines were from the NCI60 cell line panel including melanomas, MALME-3M and SK-MEL-2. Pooled donor human umbilical vein endothelial cells (HUVEC, Lonza, cat. CC-2519) and human mesenchymal stem cells (hMSC, Lonza, cat. PT-2501) were purchased from Lonza (Walkersville, MD).
PDMR cell lines were grown in complete medium (DC medium): Dulbecco's modified Eagle's medium (DMEM)/F12 supplemented with 5% fetal bovine serum (FBS), 2 mM L-glutamine, 100 U/mL penicillin and 100 µg/ml streptomycin, 0.4 µg/ml hydrocortisone, 10 ng/ml epidermal growth factor (EGF) recombinant human protein, 24 µg/mL adenine, and 0.1 mg/mL primocin. During culture from frozen stock vials, PDMR cells were cultured in the same medium containing 10 µM Y-27632 (see Table 3). The PDCs were cultured in complete DMEM/F12 media without 10 microM Y-27632 dihydrochloride for at least two passages prior to the screen. The pooled donor HUVEC and hMSC were cultured in endothelial cell growth medium 2 (PromoCell, Heidelberg, Germany, cat. C-22011) and mesenchymal stem cell growth medium 2 (PromoCell, cat. C-28009), respectively. For all experiments, HUVEC and hMSC were used at passages </=5.
For the pre-screen, cell seeding densities were determined from a titration spanning the range from 5,000 to 313 cells per well. The mct-spheroids including 60% malignant cells, 25% HUVEC and 15% MSC dispensed as a mixture into U-bottom Ultra-Low Attachment 384-well plates (Corning, NY)
High-throughput Drug Combination Screening.
Prior to their inoculation into 384-well plates, malignant cells, HUVEC, and hMSC were removed from T flasks using TrypLE express (Thermo Fisher Scientific, cat. 12605036) and harvested by centrifugation for 5 min at 233 x g. […]
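Further: spheroids exposed to drugs for seven days before readout.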
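Wherever viability, T/C is given: 100% = DMSO vehicle control viability.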

CC(C)CC(NC(=O)CNC(=O)c1cc(Cl)ccc1Cl)B1OC(=O)CC(CC(=O)O)(C(=O)O)O1 (stereo not given) + CC(C)NCC(C(=O)N1CCN(c2ncnc3c2C(C)CC3O)CC1)c1ccc(Cl)cc1
IC50 (second compound 0.3 µM): 39 nM
IC50 (second compound 0.949 µM): 30 nM
IC50 (second compound 3 µM): 26.8 nM
IC50 (second compound 9.49 µM): 25.7 nM
IC50 (second compound 30 µM): 15.2 nM
viability, T/C (second compound 0.3 µM, first compound 0.000316 µM): 129%
viability, T/C (second compound 0.3 µM, first compound 0.001 µM): 114%
viability, T/C (second compound 0.3 µM, first compound 0.00316 µM): 104%
viability, T/C (second compound 0.3 µM, first compound 0.01 µM): 116%
viability, T/C (second compound 0.3 µM, first compound 0.0316 µM): 59%
viability, T/C (second compound 0.3 µM, first compound 0.1 µM): 8.82%
viability, T/C (second compound 0.949 µM, first compound 0.000316 µM): 85.2%
viability, T/C (second compound 0.949 µM, first compound 0.001 µM): 98.6%
viability, T/C (second compound 0.949 µM, first compound 0.00316 µM): 87.6%
viability, T/C (second compound 0.949 µM, first compound 0.01 µM): 94.2%
viability, T/C (second compound 0.949 µM, first compound 0.0316 µM): 48.1%
viability, T/C (second compound 0.949 µM, first compound 0.1 µM): 6.65%
viability, T/C (second compound 3 µM, first compound 0.000316 µM): 77.8%
viability, T/C (second compound 3 µM, first compound 0.001 µM): 78%
viability, T/C (second compound 3 µM, first compound 0.00316 µM): 87%
viability, T/C (second compound 3 µM, first compound 0.01 µM): 89.6%
viability, T/C (second compound 3 µM, first compound 0.0316 µM): 44.4%
viability, T/C (second compound 3 µM, first compound 0.1 µM): 6.08%
viability, T/C (second compound 9.49 µM, first compound 0.000316 µM): 123%
viability, T/C (second compound 9.49 µM, first compound 0.001 µM): 103%
viability, T/C (second compound 9.49 µM, first compound 0.00316 µM): 115%
viability, T/C (second compound 9.49 µM, first compound 0.01 µM): 122%
viability, T/C (second compound 9.49 µM, first compound 0.0316 µM): 35.7%
viability, T/C (second compound 9.49 µM, first compound 0.1 µM): 4.11%
viability, T/C (second compound 30 µM, first compound 0.000316 µM): 69.3%
viability, T/C (second compound 30 µM, first compound 0.001 µM): 69.1%
viability, T/C (second compound 30 µM, first compound 0.00316 µM): 72.4%
viability, T/C (second compound 30 µM, first compound 0.01 µM): 66.4%
viability, T/C (second compound 30 µM, first compound 0.0316 µM): 21.3%
viability, T/C (second compound 30 µM, first compound 0.1 µM): 2.31%

CCCS(=O)(=O)Nc1ccc(F)c(C(=O)c2c[nH]c3ncc(-c4ccc(Cl)cc4)cc23)c1F + CC(C)NCC(C(=O)N1CCN(c2ncnc3c2C(C)CC3O)CC1)c1ccc(Cl)cc1
IC50 (second compound 0.3 µM): > 100000 nM
IC50 (second compound 0.949 µM): > 100000 nM
IC50 (second compound 3 µM): 15900 nM
IC50 (second compound 9.49 µM): 6340 nM
IC50 (second compound 30 µM): 1140 nM
viability, T/C (second compound 0.3 µM, first compound 0.316 µM): 107%
viability, T/C (second compound 0.3 µM, first compound 1 µM): 134%
viability, T/C (second compound 0.3 µM, first compound 3.16 µM): 108%
viability, T/C (second compound 0.3 µM, first compound 10 µM): 165%
viability, T/C (second compound 0.3 µM, first compound 31.6 µM): 18.9%
viability, T/C (second compound 0.3 µM, first compound 100 µM): 122%
viability, T/C (second compound 0.949 µM, first compound 0.316 µM): 108%
viability, T/C (second compound 0.949 µM, first compound 1 µM): 123%
viability, T/C (second compound 0.949 µM, first compound 3.16 µM): 107%
viability, T/C (second compound 0.949 µM, first compound 10 µM): 103%
viability, T/C (second compound 0.949 µM, first compound 31.6 µM): 22.2%
viability, T/C (second compound 0.949 µM, first compound 100 µM): 111%
viability, T/C (second compound 3 µM, first compound 0.316 µM): 100%
viability, T/C (second compound 3 µM, first compound 1 µM): 99.4%
viability, T/C (second compound 3 µM, first compound 3.16 µM): 99.2%
viability, T/C (second compound 3 µM, first compound 10 µM): 70.1%
viability, T/C (second compound 3 µM, first compound 31.6 µM): 19.9%
viability, T/C (second compound 3 µM, first compound 100 µM): 12.1%
viability, T/C (second compound 9.49 µM, first compound 0.316 µM): 84.8%
viability, T/C (second compound 9.49 µM, first compound 1 µM): 89.8%
viability, T/C (second compound 9.49 µM, first compound 3.16 µM): 69.9%
viability, T/C (second compound 9.49 µM, first compound 10 µM): 36.1%
viability, T/C (second compound 9.49 µM, first compound 31.6 µM): 14.2%
viability, T/C (second compound 9.49 µM, first compound 100 µM): 6.73%
viability, T/C (second compound 30 µM, first compound 0.316 µM): 51.7%
viability, T/C (second compound 30 µM, first compound 1 µM): 50.9%
viability, T/C (second compound 30 µM, first compound 3.16 µM): 40.4%
viability, T/C (second compound 30 µM, first compound 10 µM): 5.79%
viability, T/C (second compound 30 µM, first compound 31.6 µM): 4.82%
viability, T/C (second compound 30 µM, first compound 100 µM): 4.7%
